Laboratory results from US12319676B2, “Substituted amide compounds useful as farnesoid X receptor modulators” (BRISTOL-MYERS SQUIBB COMPANY, priority 2019, dated 2025).

biological target: T1, human FXR (Homo sapiens, UniProt Q96RI1); experiment: transient human FXR/Gal4-luciferase reporter assay; assay type: cell-based; details: Gal4-hFXR fusion construct, luciferase reporter in HEK293 cells; overnight incubation; response as percentage of 8 μM GW-4064 control
T1 construct: expressed in transfected cells; host or cells: HEK293 cells stably carrying a 5xGal4 response element-luciferase reporter, transiently transfected with pcDNA3.1-Gal4-FXR
T1 sequence (Q96RI1 262-486 limits assumed): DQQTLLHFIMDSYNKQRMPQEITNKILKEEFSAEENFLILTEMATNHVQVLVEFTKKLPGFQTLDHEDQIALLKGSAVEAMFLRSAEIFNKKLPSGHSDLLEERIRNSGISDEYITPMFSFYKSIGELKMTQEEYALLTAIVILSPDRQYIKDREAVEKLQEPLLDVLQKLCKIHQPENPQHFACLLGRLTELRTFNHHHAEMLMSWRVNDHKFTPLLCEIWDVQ
Summary of the method: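 HEK293 cells stably carrying a 5×Gal4-response-element firefly luciferase reporter were transiently transfected with a Gal4 DBD-human FXR LBD fusion, then treated overnight with compounds at 37 °C. Steady-Glo luminescence, minus DMSO background, was expressed as percent of the response to 8 μM GW-4064.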

EC50 [nM]	SMILES
391	CC(F)(F)c1nc(C23CCC(CN(C(=O)N[C@H]4CC[C@](C)(O)CC4)c4cccc(C#N)c4)(CC2)CC3)no1 [Example 99, 1-(3-cyanophenyl)-1-((4-(5-(1,1-difluoroethyl)-1,2,4-oxadiazol-3-yl)bicyclo[2.2.2]octan-1-yl)methyl)-3-((1R,4R)-4-hydroxy-4-methylcyclohexyl)urea]
1480	CC(C)(CO)CNC(=O)N(CC12CCC(c3noc(C(C)(F)F)n3)(CC1)CC2)c1cccc(C#N)c1 [Example 100, 1-(3-cyanophenyl)-1-((4-(5-(1,1-difluoroethyl)-1,2,4-oxadiazol-3-yl)bicyclo[2.2.2]octan-1-yl)methyl)-3-(3-hydroxy-2,2-dimethylpropyl)urea]
1520	CC(C)(F)c1nc(C23CCC(CN(C(=O)N[C@H]4CC[C@H](O)CC4)c4ccc(F)c(Br)c4)(CC2)CC3)no1 [Example 101, 1-(3-bromo-4-fluorophenyl)-1-((4-(5-(2-fluoropropan-2-yl)-1,2,4-oxadiazol-3-yl)bicyclo[2.2.2]octan-1-yl)methyl)-3-((1R,4R)-4-hydroxycyclohexyl)urea]
183	CC(C)(C)c1nc(C23CCC(CN(C(=O)C45CC(F)(C4)C5)c4cccc(Nc5ncc(OC(F)F)cn5)c4)(CC2)CC3)no1 [Example 102, N-((4-(5-(tert-butyl)-1,2,4-oxadiazol-3-yl)bicyclo[2.2.2]octan-1-yl)methyl)-N-(3-((5-(difluoromethoxy)pyrimidin-2-yl)amino)phenyl)-3-fluorobicyclo[1.1.1]pentane-1-carboxamide]
187	CC(C)(C)c1nc(C23CCC(CN(C(=O)C45CC(F)(C4)C5)c4cccc(Nc5cnc(C6CC6)nc5)c4)(CC2)CC3)no1 [Example 103, N-((4-(5-(tert-butyl)-1,2,4-oxadiazol-3-yl)bicyclo[2.2.2]octan-1-yl)methyl)-N-(3-((2-cyclopropylpyrimidin-5-yl)amino)phenyl)-3-fluorobicyclo[1.1.1]pentane-1-carboxamide]
221	CC(C)(C)c1nc(C23CCC(CN(C(=O)C45CC(F)(C4)C5)c4cccc(Nc5ccc(OC(F)F)cn5)c4)(CC2)CC3)no1 [Example 104, N-((4-(5-(tert-butyl)-1,2,4-oxadiazol-3-yl)bicyclo[2.2.2]octan-1-yl)methyl)-N-(3-((5-(difluoromethoxy)pyridin-2-yl)amino)phenyl)-3-fluorobicyclo[1.1.1]pentane-1-carboxamide]
292	O=C(N(CC12CCC(c3ccc(C(F)(F)F)cn3)(CC1)CC2)c1cccc(Nc2ncc(C3CC3)cn2)c1)C12CC(F)(C1)C2 [Example 105, N-(3-((5-cyclopropylpyrimidin-2-yl)amino)phenyl)-3-fluoro-N-((4-(5-(trifluoromethyl)pyridin-2-yl)bicyclo[2.2.2]octan-1-yl)methyl)bicyclo[1.1.1]pentane-1-carboxamide]
132	O=C(N(CC12CCC(c3ccc(C(F)(F)F)cn3)(CC1)CC2)c1cccc(Nc2ncc(OC(F)F)cn2)c1)C12CC(F)(C1)C2 [Example 106, N-(3-((5-(difluoromethoxy)pyrimidin-2-yl)amino)phenyl)-3-fluoro-N-((4-(5-(trifluoromethyl)pyridin-2-yl)bicyclo[.2.2.2]octan-1-yl)methyl)bicyclo[1.1.1]pentane-1-carboxamide]
484	O=C(N(CC12CCC(c3ccc(C(F)(F)F)cn3)(CC1)CC2)c1cccc(Nc2ccc(OC(F)F)cc2)c1)C12CC(F)(C1)C2 [Example 107, N-(3-((4-(difluoromethoxy)phenyl)amino)phenyl)-3-fluoro-N-((4-(5-(trifluoromethyl)pyridin-2-yl)bicyclo[2.2.2]octan-1-yl)methyl)bicyclo[1.1.1]pentane-1-carboxamide]
629	O=C(N(CC12CCC(c3ccc(C(F)(F)F)cn3)(CC1)CC2)c1cccc(Nc2ccc(OC(F)F)cn2)c1)C12CC(F)(C1)C2 [Example 108, N-(3-((5-(difluoromethoxy)pyridin-2-yl)amino)phenyl)-3-fluoro-N-((4-(5-(trifluoromethyl)pyridin-2-yl)bicyclo[2.2.2]octan-1-yl)methyl)bicyclo[1.1.1]pentane-1-carboxamide]
292	O=C(N(CC12CCC(c3ccc(C(F)(F)F)cn3)(CC1)CC2)c1cccc(Nc2ccc(C3CC3)cn2)c1)C12CC(F)(C1)C2 [Example 109, N-(3-((5-cyclopropylpyridin-2-yl)amino)phenyl)-3-fluoro-N-((4-(5-(trifluoromethyl)pyridin-2-yl)bicyclo[2..2.2]octan-1-yl)methyl)bicyclo[1.1.1]pentane-1-carboxamide]
65	CC(C)(C)c1nc(C23CCC(CN(C(=O)C45CC(F)(C4)C5)c4cccc(O)c4)(CC2)CC3)no1 [Example 110, N-((4-(5-(tert-butyl)-1,2,4-oxadiazol-3-yl)bicyclo[2.2.2]octan-1-yl)methyl)-3-fluoro-N-(3-hydroxyphenyl)bicyclo[1.1.1]pentane-1-carboxamide]
618	CC(C)(C)c1nc(C23CCC(CN(C(=O)C45CC(F)(C4)C5)c4cccc(OCC#N)c4)(CC2)CC3)no1 [Example 111, N-((4-(5-(tert-butyl)-1,2,4-oxadiazol-3-yl)bicyclo[2.2.2]octan-1-yl)methyl)-N-(3-(cyanomethoxy)phenyl)-3-fluorobicyclo[1.1.1]pentane-1-carboxamide]
63	CC(C)(O)COc1cccc(N(CC23CCC(c4noc(C(C)(C)C)n4)(CC2)CC3)C(=O)C23CC(F)(C2)C3)c1 [Example 112, N-((4-(5-(tert-butyl)-1,2,4-oxadiazol-3-yl)bicyclo[2.2.2]octan-1-yl)methyl)-3-fluoro-N-(3-(2-hydroxy-2-methylpropoxy)phenyl)bicyclo[1.1.1]pentane-1-carboxamide]
2000	CC(C)(Oc1cccc(N(CC23CCC(c4noc(C(C)(C)C)n4)(CC2)CC3)C(=O)C23CC(F)(C2)C3)c1)C(=O)O [Example 113, 2-(3-(N-((4-(5-(tert-butyl)-1,2,4-oxadiazol-3-yl)bicyclo[2.2.2]octan-1-yl)methyl)-3-fluorobicyclo[1.1.1]pentane-1-carboxamido)phenoxy)-2-methylpropanoic acid]
80	N#Cc1cccc(N(CC23CCC(c4noc(C(F)(F)F)n4)(CC2)CC3)C(=O)C23CC(F)(C2)C3)c1 [Example 114, N-(3-cyanophenyl)-3-fluoro-N-((4-(5-(trifluoromethyl)-1,2,4-oxadiazol-3-yl)bicyclo[2.2.2]octan-1-yl)methyl)bicyclo[1.1.1]pentane-1-carboxamide]
436	N#Cc1cccc(N(CC23CCC(c4noc(C(F)(F)F)n4)(CC2)CC3)C(=O)[C@H]2C[C@](O)(C(F)(F)F)C2)c1 [Example 115, (1S,3S)-N-(3-cyanophenyl)-3-hydroxy-3-(trifluoromethyl)-N-((4-(5-(trifluoromethyl)-1,2,4-oxadiazol-3-yl)bicyclo[2.2.2]octan-1-yl)methyl)cyclobutane-1-carboxamide]
518	N#Cc1cccc(N(CC23CCC(c4noc(C(F)(F)F)n4)(CC2)CC3)C(=O)C2CCOCC2)c1 [Example 116, N-(3-cyanophenyl)-N-((4-(5-(trifluoromethyl)-1,2,4-oxadiazol-3-yl)bicyclo[2.2.2]octan-1-yl)methyl)tetrahydro-2H-pyran-4-carboxamide]
1350	C[C@]1(O)C[C@@H](C(=O)N(CC23CCC(c4noc(C(F)(F)F)n4)(CC2)CC3)c2cccc(C#N)c2)C1 [Example 117, (1S,3S)-N-(3-cyanophenyl)-3-hydroxy-3-methyl-N-((4-(5-(trifluoromethyl)-1,2,4-oxadiazol-3-yl)bicyclo[2.2.2]octan-1-yl)methyl)cyclobutane-1-carboxamide]
361	CC(C)(C)c1nc(C23CCC(CN(C(=O)C45CC(F)(C4)C5)c4cccc(Oc5ncc(OC(F)F)cn5)c4)(CC2)CC3)no1 [Example 118, N-((4-(5-(tert-butyl)-1,2,4-oxadiazol-3-yl)bicyclo[2.2.2]octan-1-yl)methyl)-N-(3-((5-(difluoromethoxy)pyrimidin-2-yl)oxy)phenyl)-3-fluorobicyclo[1.1.1]pentane-1-carboxamide]
536	CC(C)(C)c1nc(C23CCC(CN(C(=O)C45CC(F)(C4)C5)c4cccc(Oc5ccc(OC(F)F)cn5)c4)(CC2)CC3)no1 [Example 119, N-((4-(5-(tert-butyl)-1,2,4-oxadiazol-3-yl)bicyclo[2.2.2]octan-1-yl)methyl)-N-(3-((5-(difluoromethoxy)pyridin-2-yl)oxy)phenyl)-3-fluorobicyclo[1.1.1]pentane-1-carboxamide]
4000	CC(F)(F)c1nc(C23CCC(CN(C(=O)C45CC(F)(C4)C5)c4cccc(C(=O)O)c4)(CC2)CC3)no1 [Example 120, 3-(N-((4-(5-(1,1-difluoroethyl)-1,2,4-oxadiazol-3-yl)bicyclo[2.2.2]octan-1-yl)methyl)-3-fluorobicyclo[1.1.1]pentane-1-carboxamido)benzoic acid]
412	CC(C)(C)c1noc(C23CCC(CN(C(=O)C45CC(F)(C4)C5)c4ccc(F)c(C(N)=O)c4)(CC2)CC3)n1 [Example 121, N-((4-(3-(tert-butyl)-1,2,4-oxadiazol-5-yl)bicyclo[2.2.2]octan-1-yl)methyl)-N-(3-carbamoyl-4-fluorophenyl)-3-fluorobicyclo[1.1.1]pentane-1-carboxamide]
